ChEMBL document CHEMBL5365393, “Comprehensive coverage on anti-mycobacterial endeavour reported during 2022” (Eur J Med Chem, 2023)
In brackets after ≈: the same amount, converted by molar mass. Several values for one entry are separate records, joined by “and”; a condition that tells them apart may be missing. Identical values can stand only once. Activity calls are given as the source filed them. The rule behind the calls is not given here.

Key:
[1] = Inhibition of Mycobacterium tuberculosis salicylate synthase using chorismic acid as substrate in presence of MgCl2 by fluorimetric assay
[2] = test system: Mycobacterium tuberculosis; assay: Antibacterial activity against Mycobacterium tuberculosis H37Rv assessed as inhibition of bacterial growth; type: functional, organism-based
Thymidylate kinase = target: T1, Thymidylate kinase (Mycobacterium tuberculosis, UniProt P9WKE1); assay: Inhibition of Mycobacterium tuberculosis TMPK
T1 sequence (P9WKE1 whole entry): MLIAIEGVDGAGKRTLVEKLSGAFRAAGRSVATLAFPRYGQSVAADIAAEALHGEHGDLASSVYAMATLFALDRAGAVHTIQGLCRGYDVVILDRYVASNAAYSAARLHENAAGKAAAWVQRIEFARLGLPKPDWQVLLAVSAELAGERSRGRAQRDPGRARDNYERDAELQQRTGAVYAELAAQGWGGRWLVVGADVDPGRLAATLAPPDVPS

[3] = test system: Mycobacterium tuberculosis; assay: Antibacterial activity against Mycobacterium tuberculosis H37Rv assessed as inhibition of bacterial growth by microplate alamar blue assay; type: functional
[4] = Microsomal stability in human liver microsomes assessed as half life at 0.1 uM incubated for 60 mins in presence of NADPH by LC-MS/MS analysis; type: ADME, Microsome
[5] = test system: Mycobacterium tuberculosis; assay: Antibacterial activity against Mycobacterium tuberculosis H37Rv assessed as inhibition of bacterial growth by resazurin dye based colorimetric analysis; type: functional, organism-based
[6] = test system: Mycobacterium tuberculosis; assay: Antibacterial activity against Mycobacterium tuberculosis H37Rv ATCC 27294 assessed as inhibition of bacterial growth; type: functional
[7] = test system: Mycobacterium tuberculosis; assay: Antibacterial activity against Mycobacterium tuberculosis H37Rv assessed as bacterial growth inhibition at less than 6.25 ug/ml relative to control; type: functional; conditions: read-out: GI
[8] = Selectivity index, ratio of IC50 for cytotoxicity against African green monkey Vero cells to MIC for antibacterial activity against Mycobacterium tuberculosis H37Rv; type: toxicity, cell-based; conditions: read-out: Selectivity Index
[9] = test system: Mycobacterium tuberculosis; assay: Antibacterial activity against Mycobacterium tuberculosis H37Rv infected in Macrophage assessed as reduction in bacterial growth; type: functional
[10] = Cytotoxicity against African green monkey Vero cells assessed as inhibition of cell growth; type: toxicity, cell-based; conditions: African green monkey (Chlorocebus sabaeus)
DNA gyrase = DNA gyrase (Escherichia coli, UniProt P0AES4+P0AES6); assay: Inhibition of Escherichia coli DNA gyrase; type: protein-complex assay
[11] = test system: Mycobacterium tuberculosis; assay: Antibacterial activity against drug-sensitive Mycobacterium tuberculosis assessed as inhibition of bacterial growth; type: functional
[12] = test system: Mycobacterium tuberculosis; assay: Antibacterial activity against Mycobacterium tuberculosis assessed as inhibition of bacterial growth; type: functional, organism-based
[13] = test system: Mycobacterium tuberculosis; assay: Antibacterial activity against drug susceptible Mycobacterium tuberculosis H37Rv assessed as inhibition of bacterial growth; type: functional
RAW264.7 = assay: Cytotoxicity against mouse RAW264.7 cells assessed as cell growth inhibition by MTT assay relative to control; type: functional
[14] = test system: Mycobacterium tuberculosis; assay: Antibacterial activity against Mycobacterium tuberculosis H37Ra assessed as inhibition of bacterial growth; type: functional
Pantothenate synthetase = target: T2, Pantothenate synthetase (Mycobacterium tuberculosis, UniProt P9WIL5); assay: Inhibition of Mycobacterium tuberculosis H37Ra pantothenate synthetase
T2 sequence (P9WIL5 whole entry): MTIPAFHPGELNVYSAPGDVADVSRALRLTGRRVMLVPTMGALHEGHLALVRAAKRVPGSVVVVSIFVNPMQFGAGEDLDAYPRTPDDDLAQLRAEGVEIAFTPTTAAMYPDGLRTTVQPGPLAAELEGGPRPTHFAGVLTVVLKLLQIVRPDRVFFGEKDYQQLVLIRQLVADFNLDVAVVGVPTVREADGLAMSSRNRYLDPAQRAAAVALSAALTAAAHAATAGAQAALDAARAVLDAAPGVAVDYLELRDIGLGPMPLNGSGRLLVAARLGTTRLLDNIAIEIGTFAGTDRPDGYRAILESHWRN

[15] = test system: Mycobacterium tuberculosis; assay: Antibacterial activity against Mycobacterium tuberculosis H37Rv assessed as inhibition of bacterial growth by broth microdilution assay; type: functional
Staphylococcus aureus = assay: Antibacterial activity against methicillin-resistant Staphylococcus aureus 693E assessed as inhibition of bacterial growth by broth microdilution assay; type: functional
[16] = target: T3, Enoyl-[acyl-carrier-protein] reductase [NADH] (Mycobacterium tuberculosis, UniProt P9WGR1); assay: Inhibition of Mycobacterium tuberculosis InhA
T3 sequence (P9WGR1 whole entry): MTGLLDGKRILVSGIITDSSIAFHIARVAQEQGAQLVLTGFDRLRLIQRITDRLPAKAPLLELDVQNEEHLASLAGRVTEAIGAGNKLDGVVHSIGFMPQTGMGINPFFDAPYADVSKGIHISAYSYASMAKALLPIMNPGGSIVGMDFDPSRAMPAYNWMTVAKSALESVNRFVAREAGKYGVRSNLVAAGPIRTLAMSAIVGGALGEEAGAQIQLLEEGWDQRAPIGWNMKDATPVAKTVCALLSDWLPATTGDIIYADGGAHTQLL

[17] = test system: Mycobacterium tuberculosis; assay: Antibacterial activity against Mycobacterium tuberculosis assessed as inhibition of bacterial growth by microplate alamar blue assay; type: functional
[18] = Cytotoxicity against human WI-38 cells assessed as inhibition of cell growth by MTT assay; type: toxicity, cell-based
[19] = Inhibition of Mycobacterium tuberculosis H37Rv mc2 6206 HadA/B expressed in Escherichia coli using trans-2-hexadecenoyl-coenzyme A as substrate by spectrophotometric analysis
[20] = test system: Mycobacterium tuberculosis; assay: Inhibition of Mycobacterium tuberculosis H37Rv mc2 6206 HadB/C expressed in Escherichia coli using trans-2-hexadecenoyl-coenzyme A as substrate by spectrophotometric analysis
[21] = test system: Mycobacterium tuberculosis; assay: Antibacterial activity against wild-type Mycobacterium tuberculosis H37Rv assessed as inhibition of bacterial growth; type: functional

N#Cc1cc(OCCOc2ccccc2)cc(-c2ccc(C(=O)O)o2)c1
IC50 [1]: 12100 nM

Cc1nc2cc(C(F)(F)F)ccc2n1-c1ncc(C(F)(F)F)s1
MIC [2]: 0.28 µM

Cc1cc(C(=O)N2CCN(c3nc(=O)c4cc(F)cc([N+](=O)[O-])c4s3)CC2)c2cc(Br)ccc2n1
MIC [2]: 0.06 µg/mL

Cc1cn([C@H]2C[C@H](O)[C@@H](COP(=O)(O)O)O2)c(=O)[nH]c1=O [THYMIDINE MONOPHOSPHATE]
IC50 (Thymidylate kinase): 70 nM

CC1/C(=N\NC(N)=[Se])Nc2ccccc21 (stereo not drawn)
MIC [3]: 1.6 µg/mL

CC(=O)c1c(C)n(-c2ccc(-c3ccccc3)cc2)c2ccc(O)c(CN3CCCCC3)c12
half-life at 0.1 µM [4]: 20.7 min
MIC [3]: 0.063 µg/mL

C/C(=N\N=C(\N/N=C(\C)c1ccc(Cl)cc1)NC(=S)Nc1cccc2ccccc12)c1ccc(Cl)cc1
MIC [2]: 0.78 µM

O=C(/C=C/c1ccccc1)c1ccc(Br)cc1
MIC [3]: 6.25 µg/mL

NNC(=O)c1ccncc1 [ISONIAZID]
MIC [2]: 15.6 µg/mL
IC50 [5]: 1.6 µg/mL (≈ 11.7 µM)
MIC [3]: 1.6 µg/mL

O=C(/C=C/c1cc(Cl)ccc1O)c1ccc(Br)cc1
MIC [3]: 6.25 µg/mL

O=C1Nc2ccccc2/C1=N\OCc1cn(Cc2ccc(F)cc2)nn1
MIC [6]: 0.78 µg/mL (≈ 2.22 µM)

Cc1cc(C(=O)N2CCN(c3nc(=O)c4cc(Br)cc([N+](=O)[O-])c4s3)CC2)c2cc(Cl)ccc2n1
MIC [2]: 0.12 µg/mL

Cc1cc(C(=O)N2CCN(c3nc(=O)c4cc(Cl)cc([N+](=O)[O-])c4s3)CC2)c2cc(Br)ccc2n1
MIC [2]: 0.06 µg/mL

CCOC(=O)C1=C(C)NC(=O)NC1c1ccccc1OCc1cn(CC(=O)c2ccc(Cl)cc2)nn1 (stereo not drawn)
MIC [3]: 6.13 µM

C[C@H]1S[C@]2(CC[C@@H](c3ccccc3)CC2)N(NC(=O)[C@@H](O)c2ccccc2)C1=O
MIC [2]: < 6.25 µg/mL
inhibition of growth at 6.25 µg/mL [7]: 98%

CO[C@H]1/C=C/O[C@@]2(C)Oc3c(C)c(O)c4c(O)c(c(/C=N/N5CCN(C)CC5)c(O)c4c3C2=O)NC(=O)/C(C)=C\C=C\[C@H](C)[C@H](O)[C@@H](C)[C@@H](O)[C@@H](C)[C@H](OC(C)=O)[C@@H]1C [RIFAMPIN]
MIC [2]: 0.97 µg/mL

O=C1C(C#Cc2ccccc2)=C(c2ccc(C(F)(F)F)cc2)C(=O)N1Cc1ccccn1
MIC [2]: 0.92 µg/mL
selectivity ratio [8]: 69.6
Activity [9]: 0.47 log10CFU
IC50 [10]: > 64 µg/mL

Clc1ccc(Cn2cc(COc3ccc(C4=NCCO4)cc3)nn2)cc1
IC50 [2]: 1600 nM
IC50 (DNA gyrase): 83 nM

Cc1cc(C(=O)N2CCN(c3nc(=O)c4cc(Br)cc([N+](=O)[O-])c4s3)CC2)c2cc(Br)ccc2n1
MIC [2]: 0.12 µg/mL

Cc1cc(C(=O)N2CCN(c3nc(=O)c4cc(Cl)cc([N+](=O)[O-])c4s3)CC2)c2cc(Cl)ccc2n1
MIC [2]: 0.06 µg/mL

Cc1cc(C(=O)N2CCN(c3nc(=O)c4cc(C(F)(F)F)cc([N+](=O)[O-])c4s3)CC2)c2cc(Br)ccc2n1
MIC [2]: 0.12 µg/mL

CC(=O)c1ccc(N2CN=c3s/c(=C/c4ccco4)c(=O)n3C2)cc1
MIC [11]: 2.49 µg/mL (≈ 7.05 µM)

O=C(Nc1ccc(C(=O)O)c(O)c1)c1cncc(Cl)n1
MIC [2]: 3.13 µg/mL

Cc1cc(N=Nc2ccc(O)cc2O)ccc1C(C)C
IC50 [12]: 620 nM

O=C1C(Cl)=C(Cl)C2(OC(c3c(Cl)cccc3Cl)=NN2c2ccccc2)c2ccccc21 (stereo not drawn)
MIC [2]: 15.6 µg/mL

CCCCCCc1ccc(-c2cn(CC(=O)Cn3ccnc3[N+](=O)[O-])nn2)cc1
MIC [2]: 65.3 µM

COC(=O)c1cc(-c2ccc(OC)c(NC(=O)c3cc(-c4cccc(Cl)c4)nc4ccccc34)c2)on1
MIC [13]: 0.12 µg/mL (≈ 0.233 µM)

CN1CCN(C(=O)c2cc3ccccc3[nH]2)CC1
growth inhibition (GI) (RAW264.7): 32%
MIC [3]: 3.12 µg/mL

Cc1nc2sc3ccccc3n2c1C(=O)N1CCN(Cc2cn(-c3ccc(Cl)cc3Cl)nn2)CC1
IC50 [5]: 1.6 µg/mL (≈ 3.04 µM)
IC90 [14]: 15200 nM
IC50 (Pantothenate synthetase): 2030 nM

CC(=O)c1c(C)n(-c2ccc(C3CCNCC3)cc2)c2ccc(O)c(CN3CCCCC3)c12
half-life at 0.1 µM [4]: 58 min
MIC [3]: 0.125 µg/mL

CC(C)(C)OC(=O)N1CCN(c2ccc(N3C[C@H](CNC(=O)c4ccc([N+](=O)[O-])o4)OC3=O)cc2F)CC1
MIC [2]: 2.34 µg/mL

Cc1ccc(C(=O)C2[C@H]3CCCN3[C@]3(C(=O)Nc4ccccc43)C23c2ccccc2-n2c3nc3ccccc3c2=O)cc1 (stereo partly drawn)
MIC [2]: 1.56 µg/mL

CO[C@H]1C[C@@]2(C)C=C[C@H]3[C@H]4O[C@]2(/C(C)=C/[C@@H](C)[C@@H]([C@@H](C)O)OC1=O)[C@@H]3[C@H](O)[C@@H](C)[C@H]4OC(=O)c1ccc[nH]1
MIC [15]: 12.5 µM (≈ 6.62 µg/mL)
MIC (Staphylococcus aureus): 0.6 µM (≈ 0.318 µg/mL)

O=C(/C=C/c1cccc(Oc2ccccc2)c1)c1ccc(Br)cc1
MIC [3]: 6.25 µg/mL

C/C(=N\NC(=S)Nc1cccc(Cl)c1Cl)c1nc2cc([N+](=O)[O-])ccc2[nH]1
MIC [2]: 62.5 µg/mL

O=C(c1ccc(Cl)cc1)C1[C@H]2CCCN2[C@]2(C(=O)Nc3ccc(Cl)cc32)C12c1ccccc1-n1c2nc2ccccc2c1=O (stereo partly drawn)
MIC [2]: 1.56 µg/mL

CC[C@@H](CO)NCCN[C@@H](CC)CO [ETHAMBUTOL]
MIC [3]: 7.64 µM and 1.6 µg/mL

CCOC(=O)Cc1csc(N2C(=O)CSC2c2ccc(Br)cc2)n1 (stereo not drawn)
IC50 [16]: 1060 nM
MIC [11]: 0.48 µg/mL (≈ 1.12 µM)

O=C(N/N=C1\C(=O)N(Cc2ccccc2)c2ccccc21)c1cnc2cc(Cl)ccc2c1O
MIC [17]: 0.06 µg/mL (≈ 0.131 µM)
IC50 [18]: 36600 nM

CC(=O)NC[C@H]1CN(c2ccc(N3CCOCC3)c(F)c2)C(=O)O1 [LINEZOLID]
MIC [2]: 1 µg/mL

O=c1/c(=C\c2ccc(Cl)cc2)sc2n1CN(C1=NS(=O)(=O)c3ccccc31)CN=2
MIC [11]: 2.28 µg/mL (≈ 5.12 µM)

O=C(/C=C/c1ccccc1[N+](=O)[O-])c1ccc(Br)cc1
MIC [3]: 6.25 µg/mL

COc1ccc(-c2nn(-c3ccc([N+](=O)[O-])cc3[N+](=O)[O-])c(N)c2C#N)cc1Oc1cccc(Br)c1C#N
IC50 [16]: 290 nM
MIC [11]: 0.98 µg/mL (≈ 1.7 µM)

CS(=O)(=O)N1CCN(c2ccc(N3C[C@H](CNC(=O)c4ccc([N+](=O)[O-])o4)OC3=O)cc2F)CC1
MIC [2]: 1.1 µg/mL

CS(=O)(=O)NC(=O)CCc1cn(-c2ccc(Br)cc2)nc1-c1ccc(Cl)cc1
IC50 [19]: 130 nM
inhibition [20]: inactive

CC(C)/N=c1\cc2n(-c3ccccc3)c3ccccc3nc-2cc1Nc1ccc(N2CCN(C)CC2)c(F)c1
MIC [2]: 0.625 µg/mL
MIC [21]: 0.08 µg/mL (≈ 0.154 µM)

Cc1cc(C(=O)N2CCN(c3nc(=O)c4cc(C(F)(F)F)cc([N+](=O)[O-])c4s3)CC2)c2cc(Cl)ccc2n1
MIC [2]: 0.12 µg/mL

COc1ccc(NC(=O)CCCCCN/C(C)=C2/C(=O)C=C3Oc4c(C(C)=O)c(O)c(C)c(O)c4[C@]3(C)C2=O)cc1OC
MIC [2]: 5.3 µM

CCOC(=O)Cc1csc(N2C(=O)CSC2c2ccc(OC)cc2)n1 (stereo not drawn)
IC50 [16]: 1300 nM
MIC [11]: 0.12 µg/mL (≈ 0.317 µM)
